Biological target: T1, NIK (Homo sapiens, UniProt Q99558)
T1 construct: Both assays utilize a truncated form of NIK containing only the catalytic domain; made in house; host or cells: baculovirus expression system (insect cells implied)
Experiment: homogenous time resolved fluorescence (HTRF) assay for NIK Ki measurement
Format: biochemical
Details: truncated NIK (catalytic domain only), autophosphorylation; 10 nM enzyme; 20, 100, 200 or 500 μM ATP; room temperature, 2 hours; read-out: Ki activity in the homogenous time resolved fluorescence (HTRF) assay for NIK
Protocol: Two formats of biochemical assays are implemented: (1) chemiluminescent (CL) assay for NIK IC50 determination; (2) homogenous time resolved fluorescence (HTRF) assay for NIK Ki measurement. […] The NIK proteins are purified with baculovirus expression system and further biotinylated with N-hydroxysuccinamide biotin ester (Sigma). […] The reaction mixtures are then immobilized on a Streptavidin-coated plate (Pierce). […] For the HTRF assay, 10 nM of enzyme are incubated with compounds in the presence of 20, 100, 200, or 500 μM of ATP in a buffer with 20 mM of Hepes pH7.5, 20 mM of MgCl2, 0.2% of Tween 20 and 1 mM of DTT at room temperature for 2 hours.

T1 sequence (Q99558 400-655 limits assumed): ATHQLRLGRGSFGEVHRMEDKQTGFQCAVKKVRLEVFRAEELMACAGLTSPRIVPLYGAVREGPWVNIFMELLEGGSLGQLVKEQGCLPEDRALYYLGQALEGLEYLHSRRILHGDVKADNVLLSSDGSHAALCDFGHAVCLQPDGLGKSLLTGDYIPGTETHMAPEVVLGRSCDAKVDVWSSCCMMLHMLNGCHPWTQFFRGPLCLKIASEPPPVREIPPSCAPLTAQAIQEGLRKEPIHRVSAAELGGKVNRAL

`COCCN(C)C1CCn2c1c(-c1ccncn1)c1cc(C#CC(C)(O)c3nccs3)ccc12` (single isomer, unassigned) [Example 87, 4-((R*)-1-((2-methoxyethyl)(methyl)amino)-9-(pyrimidin-4-yl)-2,3-dihydro-1H-pyrrolo[1,2-a]indol-7-yl)-2-(thiazol-2-yl)but-3-yn-2-ol] was tested, and the Ki was < 1 µM.

A Ki of 1 to 30 µM was found for `COCCOc1ccc(C#C[C@](C)(O)c2cc(C)on2)cc1Nc1nc(N)ncc1Cl` (single isomer, unassigned) [Example 178] in this work.

In the case of `COCCOc1ccc(C#C[C@@](C)(O)c2cc(C)on2)cc1Nc1nc(N)ncc1Cl` (single isomer, unassigned) [Example 179], the Ki is reported as < 1 µM.

A Ki of 1 to 30 µM was found for `CN1CC2(C1)CN(c1nc(N)ncc1Cl)c1cc(C#CC(C)(O)c3nccs3)ccc12` (single isomer, unassigned) [Example 182a, (2S*)-4-(1′-(2-Amino-5-chloro-4-pyrimidinyl)-1-methyl-1′,2′-dihydrospiro[azetidine-3,3′-indol]-6′-yl)-2-(1,3-thiazol-2-yl)-3-Butyn-2-ol] in this work.

`CN1CC2(C1)CN(c1nc(N)ncc1Cl)c1cc(C#C[C@@](C)(O)c3nccs3)ccc12` (single isomer, unassigned) [Example 182b, (2R*)-4-(1′-(2-Amino-5-chloro-4-pyrimidinyl)-1-methyl-1′,2′-dihydrospiro[azetidine-3,3′-indol]-6′-yl)-2-(1,3-thiazol-2-yl)-3-butyn-2-ol] was tested, and the Ki was < 1 µM.

In the case of `CN1CCC2(C1)CN(c1nc(N)ncc1Cl)c1cc(C#CC3(O)CCCC3)ccc12` (single isomer, unassigned) [Example 192, 1-(((3S*)-1-(2-Amino-5-chloro-4-pyrimidinyl)-1′-methyl-1,2-dihydrospiro[indole-3,3′-pyrrolidin]-6-yl)ethynyl)cyclopentanol], the Ki is reported as < 1 µM.

A Ki of 1 to 30 µM was found for `CN1CCC2(C1)CN(c1nc(N)ncc1Cl)c1cc(C#C[C@](C)(O)c3nccs3)ccc12` (single isomer, unassigned) [Example 194, (2S)-4-((3R*)-1-(2-Amino-5-chloro-4-pyrimidinyl)-1′-methyl-1,2-dihydrospiro[indole-3,3′-pyrrolidin]-6-yl)-2-(1,3-thiazol-2-yl)-3-butyn-2-ol] in this work.

A Ki of 1 to 30 µM was found for `C[C@](O)(C#Cc1ccc2c(c1)N(c1nc(N)ncc1Cl)CC21CCOC1)c1nccs1` (single isomer, unassigned) [Example 201, (2S)-4-((3S*)-1′-(2-Amino-5-chloro-4-pyrimidinyl)-1′,2′,4,5-tetrahydrospiro[furan-3,3′-indol]-6′-yl)-2-(1,3-thiazol-2-yl)-3-butyn-2-ol] in this work.

With `Cc1cc(C(C)(O)C#Cc2ccc3c(c2)N(c2nc(N)ncc2Cl)C[C@@]32CCOC2)no1` (single isomer, unassigned) [Example 203, 4-((3R*)-1′-(2-Amino-5-chloro-4-pyrimidinyl)-1′,2′,4,5-tetrahydrospiro[furan-3,3′-indol]-6′-yl)-2-(5-methyl-3-isoxazolyl)-3-butyn-2-ol] the Ki was < 1 µM.

With `Cc1cc(C(C)(O)C#Cc2ccc3c(c2)N(c2nc(N)ncc2Cl)CC32CCOC2)no1` (single isomer, unassigned) [Example 204, 4-((3S*)-1′-(2-Amino-5-chloro-4-pyrimidinyl)-1′,2′,4,5-tetrahydrospiro[furan-3,3′-indol]-6′-yl)-2-(5-methyl-3-isoxazolyl)-3-butyn-2-ol] the Ki was < 1 µM.

With `C[C@@](O)(C#Cc1ccc2c(c1)N(c1nc(N)ncc1Cl)CC21CCOCC1)c1nccs1` (single isomer, unassigned) [Example 209] the Ki was < 1 µM.

A Ki of 1 to 30 µM was found for `C[C@](O)(C#Cc1ccc2c(c1)N(c1nc(N)ncc1Cl)CC21CCOCC1)c1nccs1` (single isomer, unassigned) [Example 209a] in this work.

`Cc1cc([C@](C)(O)C#Cc2ccc3c(c2)N(c2nc(N)ncc2Cl)CC32CCOCC2)no1` (single isomer, unassigned) [Example 211] was tested, and the Ki was < 1 µM.

A Ki of 1 to 30 µM was found for `Cc1cc([C@@](C)(O)C#Cc2ccc3c(c2)N(c2nc(N)ncc2Cl)CC32CCOCC2)no1` (single isomer, unassigned) [Example 211a] in this work.

A Ki of 1 to 30 µM was found for `C[C@](O)(C#Cc1ccc2c(c1)N(c1nc(N)ncc1Cl)C[C@@]21CCOC1)c1nccs1` (stereo in doubt) [Example 199, (2S)-4-((3R*)-1′-(2-Amino-5-chloro-4-pyrimidinyl)-1′,2′,4,5-tetrahydrospiro[furan-3,3′-indol]-6′-yl)-2-(1,3-thiazol-2-yl)-3-butyn-2-ol] in this work.

With `C[C@@](O)(C#Cc1ccc2c(c1)N(c1nc(N)ncc1Cl)C[C@]21CCOC1)c1nccs1` (stereo in doubt) [Example 202, (2R)-4-((3S*)-1′-(2-Amino-5-chloro-4-pyrimidinyl)-1′,2′,4,5-tetrahydrospiro[furan-3,3′-indol]-6′-yl)-2-(1,3-thiazol-2-yl)-3-butyn-2-ol] the Ki was < 1 µM.

With `Cc1noc(C(C)(O)C#Cc2ccc3c(c2)N(c2nc(N)ncc2Cl)CC3)n1` (centres unmarked) [Example 1, 4-(1-(2-amino-5-chloropyrimidin-4-yl)indolin-6-yl)-2-(3-methyl-1,2,4-oxadiazol-5-yl)but-3-yn-2-ol] the Ki was < 1 µM.

In the case of `Cc1nc(C(C)(O)C#Cc2ccc3c(c2)N(c2nc(N)ncc2Cl)CC3)no1` (centres unmarked) [Example 2, 4-(1-(2-amino-5-chloropyrimidin-4-yl)indolin-6-yl)-2-(5-methyl-1,2,4-oxadiazol-3-yl)but-3-yn-2-ol], the Ki is reported as < 1 µM.

In the case of `Cc1cc(C(C)(O)C#Cc2ccc3c(c2)N(c2nc(N)ncc2Cl)CC3(C)C)no1` (centres unmarked) [Example 3, 4-(1-(2-amino-5-chloropyrimidin-4-yl)-3,3-dimethylindolin-6-yl)-2-(5-methylisoxazol-3-yl)but-3-yn-2-ol], the Ki is reported as < 1 µM.

For `CC(O)(C#Cc1ccc2c(c1)N(c1nc(N)ncc1Cl)CC2)c1cnccn1` (centres unmarked) [Example 4, 4-(1-(2-amino-5-chloropyrimidin-4-yl)indolin-6-yl)-2-(pyrazin-2-yl)but-3-yn-2-ol], the Ki was < 1 µM.

In the case of `Cc1ccnc(C(C)(O)C#Cc2ccc3c(c2)N(c2nc(N)ncc2Cl)CC3)c1` (centres unmarked) [Example 5, 4-(1-(2-amino-5-chloropyrimidin-4-yl)indolin-6-yl)-2-(4-methylpyridin-2-yl)but-3-yn-2-ol], the Ki is reported as < 1 µM.

A Ki of 1 to 30 µM was found for `Cc1nonc1C(C)(O)C#Cc1ccc2c(c1)N(c1nc(N)ncc1Cl)CC2` (centres unmarked) [Example 6, 4-(1-(2-amino-5-chloropyrimidin-4-yl)indolin-6-yl)-2-(4-methyl-1,2,5-oxadiazol-3-yl)but-3-yn-2-ol] in this work.

`CC(O)(C#Cc1ccc2c(c1)N(c1nc(N)ncc1Cl)CC2)c1ncc(CO)s1` (centres unmarked) [Example 8, 4-(1-(2-amino-5-chloropyrimidin-4-yl)indolin-6-yl)-2-(5-(hydroxymethyl)thiazol-2-yl)but-3-yn-2-ol] was tested, and the Ki was < 1 µM.

A Ki of 1 to 30 µM was found for `CC(O)(C#Cc1ccc2c(c1)N(c1nc(N)ncc1Cl)CC2)c1nc(C#N)cs1` (centres unmarked) [Example 9, 2-(4-(1-(2-amino-5-chloropyrimidin-4-yl)indolin-6-yl)-2-hydroxybut-3-yn-2-yl)thiazole-4-carbonitrile] in this work.

A Ki of 1 to 30 µM was found for `CC(O)(C#Cc1ccc2c(c1)N(c1nc(N)ncc1Cl)CC2)c1cc(N2CCCCC2)ccn1` (centres unmarked) [Example 10, 4-(1-(2-amino-5-chloropyrimidin-4-yl)indolin-6-yl)-2-(4-(piperidin-1-yl)pyridin-2-yl)but-3-yn-2-ol] in this work.

A Ki of 1 to 30 µM was found for `CC(O)(C#Cc1ccc2c(c1)N(c1nc(N)ncc1Cl)CC2)c1cc(F)ccn1` (centres unmarked) [Example 11, 4-(1-(2-amino-5-chloropyrimidin-4-yl)indolin-6-yl)-2-(4-fluoropyridin-2-yl)but-3-yn-2-ol] in this work.

From patent US20110086834A1, “ALKYNYL ALCOHOLS AS KINASE INHIBITORS” (AMGEN INC., priority 2008, published 2011)
